Patent US7452894B2, “Purine derivatives as purinergic receptor antagonists” (Vernalis Research Limited, priority 2001, dated 2008)
Like-named read-outs stand apart in the source and are kept apart here.

Experiments:
[1] = target: human adenosine A2A receptors (Homo sapiens, UniProt P29274); test: Binding affinities at hA2A receptors, displacement of [3H]-CGS 21680
[2] = human adenosine A2A receptor, radioligand [3H]-CGS 21680

Sequence of human adenosine A2A receptors (P29274 whole entry): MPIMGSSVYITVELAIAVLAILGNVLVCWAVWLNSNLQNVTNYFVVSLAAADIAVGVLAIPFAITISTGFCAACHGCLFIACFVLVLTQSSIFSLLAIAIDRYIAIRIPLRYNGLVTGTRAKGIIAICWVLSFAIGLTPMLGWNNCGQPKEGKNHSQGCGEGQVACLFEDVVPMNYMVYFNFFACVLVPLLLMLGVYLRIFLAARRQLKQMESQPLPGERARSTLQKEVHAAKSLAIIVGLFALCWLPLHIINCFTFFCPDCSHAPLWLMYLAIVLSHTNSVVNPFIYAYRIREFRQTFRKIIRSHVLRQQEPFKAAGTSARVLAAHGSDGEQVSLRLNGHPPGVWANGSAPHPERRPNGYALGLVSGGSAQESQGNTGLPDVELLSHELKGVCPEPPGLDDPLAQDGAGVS

SMILES: Cc1cccc(Cn2cnc3c(-c4ccco4)nc(N)nc32)c1 [Example 126, 6-(2-Furyl)-9-(3-methylbenzyl)-9H-purine-2-amine]
- Ki [1]: 7 nM

SMILES: Nc1nc(-c2ccco2)c2ncn(S(=O)(=O)/C=C/c3ccccc3)c2n1 [Example 185, 6-(2-Furyl)-9-(2-phenylethenyl)sulphonyl-9H-purine-2-amine]
- Ki [1]: 7 nM

SMILES: Nc1nc(-c2ccco2)c2ncn(C(=O)NCc3ccc(F)cc3)c2n1 [Example 79, 2-Amino-N-(4-fluorobenzyl)-6-(2-furyl)-9H-purine-9-carboxamide]
- Ki [1, 2]: 1 nM

SMILES: Nc1cccc(Cn2cnc3c(-c4ccco4)nc(N)nc32)c1 [Example 192, 9-(3-Aminobenzyl)-6-(2-furyl)-9H-purine-2-amine]
- Ki [1]: 24 nM

SMILES: Cc1ccc(Cn2cnc3c(-c4ccco4)nc(N)nc32)cc1 [Example 127, 6-(2-Furyl)-9-(4-methylbenzyl)-9H-purine-2-amine]
- Ki [1]: 9 nM

SMILES: Cc1cccc(Cn2cnc3c(-c4ccco4)nc(N)nc32)n1 [Example 212, 6-(2-Furyl)-9-(6-methyl-2-pyridyl)methyl-9H-purine-2-amine]
- Ki [1]: 35 nM

SMILES: Nc1nc(-c2ccco2)c2ncn(Cc3cc([N+](=O)[O-])ccc3F)c2n1 [Example 259, 9-(2-Fluoro-5-nitrobenzyl)-6-(2-furyl)-9H-purine-2-amine]
- Ki [1]: 11 nM

SMILES: Nc1nc(-c2ccco2)c2ncn(C(=O)NCc3ccccc3)c2n1 [Example 26, 2-Amino-N-benzyl-6-(2-furyl)-9H-purine-9-carboxamide]
- Ki [1, 2]: 1 nM

SMILES: Nc1nc(-c2ccco2)c2ncn(C(=O)NCCc3ccccc3)c2n1 [Example 92, 2-Amino-6-(2-furyl)-N-(2-phenylethyl)-9H-purine-9-carboxamide]
- Ki [1, 2]: 6 nM

SMILES: COc1ccc(CNC(=O)n2cnc3c(-c4ccco4)nc(N)nc32)cc1 [Example 37, 2-Amino-6-(2-furyl)-N-(4-methoxybenzyl)-9H-purine-9-carboxamide]
- Ki [1]: 4 nM

SMILES: CCCCNC(=O)n1cnc2c(-c3ccco3)nc(N)nc21 [Example 36, 2-Amino-N-n-butyl-6-(2-furyl)-9H-purine-9-carboxamide]
- Ki [1]: 7 nM

SMILES: Cc1ccc(CNC(=O)n2cnc3c(-c4ccco4)nc(N)nc32)cc1 [Example 38, 2-Amino-6-(2-furyl)-N-(4-methylbenzyl)-9H-purine-9-carboxamide]
- Ki [1, 2]: 1 nM

SMILES: Nc1nc(-c2ccco2)c2ncn(C/C=C/c3ccccc3)c2n1 [Example 57, 6-(2-Furyl)-9-(1-phenyl-1-propene-3-yl)-9H-purine-2-amine]
- Ki [1]: 12 nM

SMILES: Nc1nc(-c2ccco2)c2ncn(Cc3cccc(Cl)c3)c2n1 [Example 125, 9-(3-Chlorobenzyl)-6-(2-furyl)-9H-purine-2-amine]
- Ki [1]: 6 nM

SMILES: Nc1nc(-c2ccco2)c2ncn(CC(=O)NCc3ccco3)c2n1 [Example 218, 2-Amino-6-(2-furyl)-N-(2-furylmethyl)-9H-purine-9-acetamide]
- melting point: 276.4 to 276.9 °C

SMILES: CC(C)NC(=O)n1cnc2c(-c3ccco3)nc(N)nc21 [Example 30, 2-Amino-6-(2-furyl)N-isopropyl-9H-purine-9-carboxamide]
- melting point: > 300 °C (dec.)

SMILES: O=C(NC1CCCCC1)n1cnc2c(-c3ccco3)nc(Cl)nc21 [Example 31, 2-Chloro-N-cyclohexyl-6-(2-furyl)-9H-purine-9-carboxamide]
- melting point: 177.4 to 177.8 °C

SMILES: C=CCNc1nc(-c2ccco2)c2ncn(COCC[Si](C)(C)C)c2n1
- melting point: 185.5 to 186 °C

SMILES: Nc1nc(-c2ccco2)c2ncn(CC(=O)O)c2n1 [Example 73, 2-Amino-6-(2-furyl)-9H-purine-9-acetic acid]
- melting point: > 300 °C (dec.)

SMILES: Nc1nc(-c2ccco2)c2ncn(Cc3ccccc3NS(=O)(=O)c3cccs3)c2n1 [Example 238, 6-(2-Furyl)-9-(2-(2-thienylsulphonylamino)benzyl)-9H-purine-2-amine]
- melting point: 265.6 to 266 °C

SMILES: Cc1ccc(-c2nc(N)nc3[nH]cnc23)nc1 [Example 241, 6-(5-Methyl-2-pyridinyl)-1H-purine-2-amine]
- melting point: 246.2 to 248 °C

SMILES: COc1cccc(NC(=O)Cn2cnc3c(-c4ccco4)nc(N)nc32)c1 [Example 231, 2-Amino-6-(2-furyl)-N-(3-methoxyphenyl)-9H-purine-9-acetamide]
- melting point: 278.5 to 280.4 °C

SMILES: Nc1nc(-c2ccco2)c2ncn(C(=O)NC3CCCCC3)c2n1 [Example 19, 2-Amino-N-cyclohexyl-6-(2-furyl)-9H-purine-9-carboxamide]
- melting point: 177.6 to 178.2 °C

SMILES: Cc1ccc(S(=O)(=O)n2cnc3c(-c4ccco4)nc(N(C)C)nc32)cc1 [Example 56, N,N-Dimethyl-6-(2-furyl)-9-(4-methylphenylsulphonyl)-9H-purine-2-amine]
- melting point: 212.6 to 213 °C

SMILES: Nc1nc(-c2ccco2)c2ncn(CCN3C(=O)c4ccccc4C3=O)c2n1 [Example 174, 6-(2-Furyl)-9-(2-phthalimidoethyl)-9H-purine-2-amine]
- melting point: 160 °C (dec.)

SMILES: Nc1nc(-c2ccco2)c2ncn(Cc3cccc(F)c3)c2n1 [Example 203, 9-(3-Fluorobenzyl)-6-(2-furyl)-9H-purine-2-amine]
- melting point: 218.2 to 218.5 °C

SMILES: Cc1nc(-c2ccco2)c2nc[nH]c2n1 [Example 153, 6.(2-Furyl)-2-methyl-1H-purine]
- melting point: 342 °C (dec.)

SMILES: Nc1nc(-c2ccco2)c2ncn(CC(=O)NCc3ccccc3F)c2n1 [Example 237, 2-Amino-N-(2-fluorobenzyl)-6-(2-furyl)-9H-purine9-acetamide]
- melting point: 291.9 to 292.1 °C

SMILES: CC(C)(C)OC(=O)n1cnc2c(-c3ccco3)nc(Cl)nc21 [Example 7, tert-Butyl 2-chloro-6-(2-furyl)-9H-purine-9-carboxylate]
- melting point: > 305 °C (dec.)

SMILES: Nc1nc(-c2cncs2)c2nc[nH]c2n1 [Example 137, 6-(5-Thiazolyl)-1H-purine-2-amine]
- melting point: 300 °C (dec.)

SMILES: Cc1ccc(-c2nc(N)nc3c2ncn3C(=O)NCc2ccccc2)o1 [Example 204, 2-Amino-N-benzyl-6-(5-methyl-2-furyl)-9H-purine-9-carboxamide]
- melting point: 160 °C (dec.)

SMILES: Nc1nc(-c2ccco2)c2ncn(CC(=O)N3CCCC3)c2n1 [Example 88, 6-(2-Furyl)-9-(2-oxo-2-(1-pyrrolidinyl)ethyl)-9H-purine-2-amine]
- melting point: 283.6 to 283.7 °C

SMILES: COc1cc(Cn2cnc3c(-c4ccco4)nc(N)nc32)cc(OC)c1 [Example 219, 9-(3,5-Dimethoxybenzyl)-6-(2-furyl)-9H-purine-2-amine]
- melting point: 205.3 to 205.4 °C

SMILES: CNc1nc(-c2ccco2)c2ncn(COCC[Si](C)(C)C)c2n1
- melting point: 160.1 to 160.8 °C

SMILES: CN(C)C(=O)c1ccc(Cn2cnc3c(-c4ccco4)nc(N)nc32)cc1 [Example 233, 4-(2-Amino-6-(2-furyl)-9H-purine-9-ylmethyl)-N,N-dimethylbenzamide]
- melting point: 223.1 to 226.9 °C

SMILES: Nc1nc(-c2ccco2)c2ncn(CC(=O)NCc3ccc(Cl)cc3)c2n1 [Example 144, 2-Amino-N-(4-chlorobenzyl)-6-(2-furyl)-9H-purine-9-acetamide]
- melting point: 277 °C (dec.)

SMILES: Nc1nc(-c2ccco2)c2ncn(CC(=O)Nc3ccncc3)c2n1 [Example 142, 2-Amino-6-(2-furyl)-N-(4-pyridyl)-9H-purine-9-acetamide]
- melting point: 281.3 to 283.2 °C

SMILES: NC(=O)Cn1cnc2c(-c3ccco3)nc(N)nc21 [Example 87, 2-Amino-6-(2-furyl)-9H-purine-9-acetamide]
- melting point: 321.5 to 321.6 °C

SMILES: CC(C)(C)OC(=O)n1cnc2c(-c3cccs3)nc(N)nc21 [Example 78, tert-Butyl 2-amino-6-(2-thienyl)-9H-purine-9-carboxylate]
- melting point: > 250 °C (dec.)

SMILES: Nc1nc(-c2ccco2)c2ncn(CC(=O)NCc3ccccn3)c2n1 [Example 119, 2-Amino-6-(2-furyl)-N-(2-pyridylmethyl)-9H-purine-9-acetamide]
- melting point: 238.3 to 238.4 °C

SMILES: Cc1ccc(Cn2cnc3c(-c4ccco4)nc(C#N)nc32)cc1 [Example 173, 6-(2-Furyl)-9-(4-methylbenzyl)-9H-purine-2-carbonitrile]
- melting point: 196.5 °C (dec.)

SMILES: Cc1ccsc1-c1nc(N)nc2[nH]cnc12 [Example 150, 6-(3-Methyl-2-thienyl)-1H-purine-2-amine]
- melting point: 247 to 248 °C

SMILES: Nc1nc(-c2cncs2)c2ncn(Cc3ccccc3F)c2n1 [Example 267, 9-(2-Fluorobenzyl)-6-(thiazol-5-yl)-9H-purine-2-amine]
- melting point: 190.5 to 190.6 °C

SMILES: CS(=O)(=O)Nc1cccc(Cn2cnc3c(-c4ccco4)nc(N)nc32)c1 [Example 217, 6-(2-Furyl)-9-(3-methanesulphonylaminobenzyl)-9H-purine-2-amine]
- melting point: 171.2 to 171.3 °C

SMILES: Nc1nc(-c2ccco2)c2ncn(Cc3ccccc3[N+](=O)[O-])c2n1 [Example 197, 6-(2-Furyl)-9-(2-nitrobenzyl)-9H-purine-2-amine]
- melting point: 290.6 to 290.7 °C

SMILES: CNc1nc(-c2ccco2)c2nc[nH]c2n1 [Example 18, 6-(2-Furyl)-N-methyl-1H-purine-2-amine]
- melting point: 235 to 236 °C (dec.)

SMILES: COc1ccc(NC(=O)Cn2cnc3c(-c4ccco4)nc(N)nc32)c(C)c1 [Example 169, 2-Amino-6-(2-furyl)-N-(4-methoxy-2-methylphenyl)-9H-purine-9-acetamide]
- melting point: 287.1 to 288.2 °C

SMILES: Nc1nc(-c2ccco2)c2ncn(Cc3cccc4[nH]ccc34)c2n1 [Example 271, 6-(2-Furyl)-9-(4-indolylmethyl)-9H-purine-2-amine]
- melting point: 305.4 to 306.8 °C

SMILES: OC[C@H]1CCCN1c1nc(-c2ccco2)c2nc[nH]c2n1 [Example 9, (2R)-1-(6-(2-Furyl)-1H-purine-2-yl)-2-pyrrolidinemethanol]
- melting point: 130.9 to 131.5 °C

SMILES: Nc1nc(-c2ccco2)c2ncn(CC(=O)NCc3ccccc3)c2n1 [Example 86, 2-Amino-N-benzyl-6-(2-furyl)-9H-purine-9-acetamide]
- melting point: 287.2 to 287.8 °C

SMILES: C[C@H](N)Cn1cnc2c(-c3ccco3)nc(N)nc21 [Example 251, (2S)-9-(2-Amino-1-propyl)-6-(2-furyl)-9H-purine-2-amine]
- melting point: 247 to 252 °C
